The source made the active and inactive calls. No cut-off for these calls is given here.
Columns and labels:
[1] = biological target: T1, Xanthine dehydrogenase/oxidase (Homo sapiens, UniProt P47989); experiment: Inhibition of XOD (unknown origin) using xanthine as substrate at 1 uM preincubated for 30 mins followed by xanthine addition measured after 30 mins by microplate reader relative to control; settings: 0.5 h, time 60 min
Rattus norvegicus [2] = experiment: Antiarthritic activity against MSU-induced Sprague-Dawley rat OA model assessed as reduction of serum TNF-alpha protein expression level at 10 mg/kg, ig administered for 3 days by ELISA; type: functional, organism-based; settings: time 3.0 day
Rattus norvegicus [3] = experiment: Antiarthritic activity against MSU-induced Sprague-Dawley rat OA model assessed as dysfunction index at 1 mg/kg, ig administered for 3 days; type: functional, organism-based; settings: time 3.0 day
Rattus norvegicus [4] = experiment: Antiarthritic activity against MSU-induced Sprague-Dawley rat OA model assessed as reduction in NLRP3 mRNA expression level in tissue joint at 10 mg/kg, ig administered for 3 days by qRT-PCR analysis; type: functional, organism-based; settings: time 3.0 day
Rattus norvegicus [5] = experiment: Antiarthritic activity against MSU-induced Sprague-Dawley rat OA model assessed as toe swelling volume variation at 10 mg/kg, ig administered for 3 days; type: functional; settings: time 3 day
Rattus norvegicus [6] = experiment: Antiarthritic activity against MSU-induced Sprague-Dawley rat OA model assessed as inflammation index at 1 mg/kg, ig administered for 3 days; type: functional, organism-based; settings: time 3.0 day
Rattus norvegicus [7] = experiment: Antiarthritic activity against MSU-induced Sprague-Dawley rat OA model assessed as toe swelling volume variation at 1 mg/kg, ig administered for 3 days; type: functional, organism-based; settings: time 3.0 day
Rattus norvegicus [8] = experiment: Antiarthritic activity against MSU-induced Sprague-Dawley rat OA model assessed as reduction in ASC mRNA expression level in tissue joint at 10 mg/kg, ig administered for 3 days by qRT-PCR analysis; type: functional, organism-based; settings: time 3.0 day
Rattus norvegicus [9] = experiment: Antiarthritic activity against MSU-induced Sprague-Dawley rat OA model assessed as dysfunction index at 10 mg/kg, ig administered for 3 days; type: functional; settings: time 3 day
Rattus norvegicus [10] = experiment: Antiarthritic activity against MSU-induced Sprague-Dawley rat OA model assessed as reduction in Caspase-1 mRNA expression level in tissue joint at 10 mg/kg, ig administered for 3 days by qRT-PCR analysis; type: functional, organism-based; settings: time 3.0 day
Rattus norvegicus [11] = experiment: Antiarthritic activity against MSU-induced Sprague-Dawley rat OA model assessed as inflammation index at 10 mg/kg, ig administered for 3 days; type: functional; settings: time 3 day
[12] = biological target: T1, Xanthine dehydrogenase/oxidase; experiment: Inhibition of XOD (unknown origin) using xanthine as substrate preincubated for 30 mins followed by xanthine addition measured after 30 mins by microplate reader
Mus musculus [13] = experiment: Hypouricemic activity in hypoxanthine/potassium oxonate-induced hyperuricemic Kunming mouse model assessed as decrease in liver XOD level at 10 mg/kg, po administered for 7 days measured 4 hrs post last dose by automatic biochemical analyzer; type: functional, organism-based; settings: time 7.0 day
Mus musculus [14] = experiment: Hypouricemic activity in hypoxanthine/potassium oxonate-induced hyperuricemic Kunming mouse model assessed as decrease in serum XOD level at 10 mg/kg, po administered for 7 days measured 4 hrs post last dose by automatic biochemical analyzer; type: functional, organism-based; settings: time 7.0 day

T1 sequence (P47989 whole entry): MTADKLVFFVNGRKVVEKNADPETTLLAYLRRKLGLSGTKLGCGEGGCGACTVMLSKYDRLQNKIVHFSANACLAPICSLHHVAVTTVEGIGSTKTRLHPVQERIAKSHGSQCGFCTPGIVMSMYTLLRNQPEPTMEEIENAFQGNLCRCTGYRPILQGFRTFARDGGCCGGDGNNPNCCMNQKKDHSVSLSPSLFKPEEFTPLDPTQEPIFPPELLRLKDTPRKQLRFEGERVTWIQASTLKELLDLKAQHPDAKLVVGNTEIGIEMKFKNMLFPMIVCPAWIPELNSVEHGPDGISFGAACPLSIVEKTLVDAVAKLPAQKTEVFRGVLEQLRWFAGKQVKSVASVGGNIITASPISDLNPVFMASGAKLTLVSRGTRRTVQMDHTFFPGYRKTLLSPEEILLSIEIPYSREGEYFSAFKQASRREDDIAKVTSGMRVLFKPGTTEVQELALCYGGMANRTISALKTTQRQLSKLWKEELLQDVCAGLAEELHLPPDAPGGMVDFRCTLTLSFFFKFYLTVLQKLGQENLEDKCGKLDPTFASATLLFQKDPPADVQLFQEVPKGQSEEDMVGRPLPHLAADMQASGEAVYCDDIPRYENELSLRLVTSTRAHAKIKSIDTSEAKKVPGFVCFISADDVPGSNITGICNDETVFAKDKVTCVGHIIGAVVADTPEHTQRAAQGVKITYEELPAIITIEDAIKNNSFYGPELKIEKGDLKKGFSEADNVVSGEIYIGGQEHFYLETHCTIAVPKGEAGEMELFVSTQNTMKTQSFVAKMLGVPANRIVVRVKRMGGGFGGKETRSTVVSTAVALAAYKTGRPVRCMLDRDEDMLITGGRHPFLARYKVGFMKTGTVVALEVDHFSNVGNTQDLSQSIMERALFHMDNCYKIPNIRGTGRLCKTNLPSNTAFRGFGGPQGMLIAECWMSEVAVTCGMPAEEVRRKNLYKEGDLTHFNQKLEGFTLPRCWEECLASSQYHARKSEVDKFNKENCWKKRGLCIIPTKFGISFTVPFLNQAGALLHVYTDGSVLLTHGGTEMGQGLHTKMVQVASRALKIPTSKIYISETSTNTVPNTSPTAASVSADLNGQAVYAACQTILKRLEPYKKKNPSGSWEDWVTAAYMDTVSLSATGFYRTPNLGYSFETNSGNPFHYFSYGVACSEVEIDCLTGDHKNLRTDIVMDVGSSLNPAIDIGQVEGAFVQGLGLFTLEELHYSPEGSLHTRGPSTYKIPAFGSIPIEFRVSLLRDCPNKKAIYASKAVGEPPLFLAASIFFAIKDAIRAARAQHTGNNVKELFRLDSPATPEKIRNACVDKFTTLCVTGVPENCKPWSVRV

Structure (SMILES): COc1cc2c(cc1OC)C(Cc1ccc(O)cc1)N(C)CC2 (configuration not stated)
- inhibition at 1 µM [1]: < 20%

Structure (SMILES): CC1(C)C=Cc2cc(-c3cc(=O)c4c(O)cc(O)cc4o3)ccc2O1
- inhibition at 1 µM [1]: < 20%

Structure (SMILES): COc1cc2c(c(OC)c1OC)-c1ccc(OC)c(=O)cc1[C@@H](NC(C)=O)CC2 [COLCHICINE]
- Activity (Rattus norvegicus [2]): Active
- Activity (Rattus norvegicus [3]): Active
- Activity (Rattus norvegicus [4]): Active
- Activity (Rattus norvegicus [5]): 0.03 mL
- Activity (Rattus norvegicus [6]): Active
- Activity (Rattus norvegicus [7]): Active
- Activity (Rattus norvegicus [8]): Active
- Activity_index (Rattus norvegicus [9]): 0
- Activity (Rattus norvegicus [10]): Active
- Activity_index (Rattus norvegicus [11]): 0.6

Structure (SMILES): COc1cc(O)c2c(=O)cc(-c3cc(OC)c(OC)c(OC)c3)oc2c1 [CORYMBOSIN]
- inhibition at 1 µM [1]: < 20%

Structure (SMILES): Cc1nc(-c2ccc(OCC(C)C)c(C#N)c2)sc1C(=O)O [FEBUXOSTAT]
- IC50 [12]: 160 nM
- Activity (Mus musculus [13]): Active
- Activity (Mus musculus [14]): Active
- inhibition at 1 µM [1]: 75%

— ChEMBL document CHEMBL5370574, “Discovery and Characterization of Moracin C as an Anti-Gouty Arthritis/Hyperuricemia Candidate by Docking-Based Virtual Screening and Pharmacological Evaluation” (J Nat Prod, 2023)
